# Laboratory results as given in ChEMBL document CHEMBL1201862, “PubChem BioAssay data set” (2004).
# Active and inactive are the calls of the source.
# Legend:
# [1] = CFTR ΔF508 corrector activity in bronchial cells, dose response, human bronchial epithelial cells, plate reader, cherry-pick, two tests (AID 743267); assay type: functional, cell-based
# [2] = microbe, parasite or virus in culture; assay type: functional; conditions: Mycobacterium tuberculosis
# [3] = HepG2 cell cytotoxicity, dose response, cytotoxicity control for non-replicating M. tuberculosis project (AID 489018); assay type: functional; conditions: Mycobacterium tuberculosis
# cells = assay type: functional
# [4] = Luminescence Cell-Based Dose Response HTS to Identify Activators of Luciferase Translation or Activity in H4 […] Cells. [Related pubchem assays: 1829 (Project Summary), 1814 (Primary HTS)]; assay type: functional
# [5] = target: G-protein coupled receptor 55 (Homo sapiens, UniProt Q9Y2T6); experiment: GPR55 antagonists blocking LPI-driven arrestin recruitment, primary screen, imaging, U2OS, beta-arrestin-GFP, LPI agonist (AID 2013); assay type: functional;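 note: antagonist potency measured as reduced agonist-driven arrestin aggregation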
# [6] = Vero E6 cell cytotoxicity, dose response, cytotoxicity control for non-replicating M. tuberculosis project, secondary assay (AID 492998); assay type: functional, VeroE6; conditions: Vero C1008
# [7] = test system: Streptococcus sp. 'group A'; experiment: growth inhibition of control SK(-) GAS strain, dose response, counter-screen for streptokinase expression inhibitor project, luminescence, kanamycin, BacTiterGlo, confirmation (AID 1900); assay type: functional, organism-based
# [8] = cytotoxicity in NIH3T3 fibroblasts, dose response, cytotoxicity control for HSP40 inhibitor project, cell-based, CellTiter-Glo luminescence, cherry-pick, set 2 (AID 624265); assay type: functional
# Streptococcus = experiment: Group A Streptococcus viability loss, dose response, counter-screen for streptokinase expression inhibitor project, luminescence, BacTiterGlo (AID 1915); assay type: functional, organism-based;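 note: potency for reduction of bacterial viability or growth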
# [9] = Luminescence Cell-Based Dose Confirmation HTS to Identify Activators of 5'UTR Stem-Loop Driven Alpha-Synuclein mRNA Translation in H4 Neuroglioblastoma Cells. [Related pubchem assays: 1829 (Project Summary), 1814 (Primary HTS)]; assay type: functional
# H4 = experiment: Luminescence Cell-Based Dose Response HTS to Identify Activators of 5'UTR Stem-Loop Driven Prion Protein mRNA Translation in H4 Neuroglioblastoma Cells. [Related pubchem assays: 1829 (Project Summary), 1814 (Primary HTS)]; assay type: functional; conditions: Homo sapiens
# Streptokinase A = target: T1, Streptokinase A (Streptococcus pyogenes serotype M1, UniProt P10520); experiment: S. pyogenes streptokinase expression inhibitors, potency, dose response, plasminogen activation absorbance, OD405 (AID 1914); assay type: functional, Streptococcus pyogenes M1 GAS;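 note: secreted streptokinase activity via plasminogen activation per viability signal from cell pellet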
# T1 sequence (P10520 whole entry): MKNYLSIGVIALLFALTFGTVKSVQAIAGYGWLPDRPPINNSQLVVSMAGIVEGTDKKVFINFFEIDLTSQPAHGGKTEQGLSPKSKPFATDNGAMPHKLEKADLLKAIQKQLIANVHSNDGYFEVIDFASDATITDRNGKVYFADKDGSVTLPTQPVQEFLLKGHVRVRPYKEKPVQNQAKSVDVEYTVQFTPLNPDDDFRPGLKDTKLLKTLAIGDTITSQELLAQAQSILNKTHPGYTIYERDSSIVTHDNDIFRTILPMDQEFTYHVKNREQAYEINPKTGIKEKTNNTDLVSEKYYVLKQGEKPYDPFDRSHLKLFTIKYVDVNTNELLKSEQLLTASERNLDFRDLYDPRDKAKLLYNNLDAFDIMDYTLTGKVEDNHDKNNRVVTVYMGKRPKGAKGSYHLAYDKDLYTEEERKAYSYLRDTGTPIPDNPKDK
# [10] = THP-1 cell cytotoxicity, dose response, cytotoxicity control for non-replicating M. tuberculosis project (AID 489025); assay type: functional
# [11] = HepG2 cell cytotoxicity, dose response, cytotoxicity control, ATP luminescence, cherry-pick, activator set 2 (AID 1053143); assay type: functional, cell-based
# Beta Lactamase = Beta Lactamase (Pseudomonas aeruginosa, UniProt Q932Y6); experiment: beta-lactamase reporter inhibitor potency, dose response, artefact control for TLR9-MyD88 binding inhibitor project, BLA reporter cells, FRET fluorescence (AID 588341); assay type: cell-based;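 note: cell based assay in CHO-K1 cells stably expressing beta-lactamase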
# HEK293 [12] = experiment: NOD2 signaling inhibitors in MDP-stimulated cells, cell-based, uHTS, luminescence (AID 2001); assay type: functional; conditions: Homo sapiens
# Apelin receptor = Apelin receptor (Homo sapiens, UniProt P35414); experiment: APJ beta-arrestin recruitment antagonism, SAR follow-up, selectivity assay for CCR6 antagonist project, cell-based, luminescent, enzyme-fragment complementation (AID 588359); assay type: functional
# [13] = control 3'UTR Renilla luciferase suppression, dose response, counter-screen for Shn3 inhibitor project, cell-based, Clone20-Shn3RL, cherry-picked (AID 624133); assay type: functional
# [14] = target: Nucleotide-binding oligomerization domain-containing protein 2 (Homo sapiens, UniProt Q9HC29); experiment: NOD2 signaling inhibitors, cell-based, luminescence, uHTS, HEK293 (AID 1566); assay type: functional
# CHO = experiment: cytotoxicity in TLR9-MyD88 CHO cells, dose response, cytotoxicity control for TLR9-MyD88 binding inhibitor project, cell-based, luminescence (AID 588339); assay type: functional, hamster; conditions: Cricetulus griseus;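 note: CHO cells stably coexpressing TLR9 and MyD88 fusions from primary screen; compound exposure lasted 48 hours before viability readout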
# [15] = Shn3 3'UTR reporter inhibitors, dose response, cell-based, Clone20 osteoblasts, firefly luciferase, cherry-picked (AID 624132); assay type: functional;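 note: firefly luciferase luminescence from reporter carrying the Shn3 3'UTR in osteoblasts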
# Beta-galactosidase = Beta-galactosidase (Escherichia coli, UniProt Q8VNN2); experiment: beta-galactosidase enzyme inhibitors and activators, dose response, artefact control for CCR6 antagonist project, biochemical, E. coli enzyme, set 3 (AID 504712); assay type: functional
# Protein RecA = target: T2, Protein RecA (Mycobacterium tuberculosis, UniProt P9WHJ3); experiment: Fluorescence Cell-Free Homogeneous Dose Retest to Identify Inhibitors of RecA-Intein Splicing Activity. [Related pubchem assays (depositor defined):AID2097, AID2223, AID489010, AID492950]; assay type: functional
# T2 sequence (P9WHJ3 whole entry): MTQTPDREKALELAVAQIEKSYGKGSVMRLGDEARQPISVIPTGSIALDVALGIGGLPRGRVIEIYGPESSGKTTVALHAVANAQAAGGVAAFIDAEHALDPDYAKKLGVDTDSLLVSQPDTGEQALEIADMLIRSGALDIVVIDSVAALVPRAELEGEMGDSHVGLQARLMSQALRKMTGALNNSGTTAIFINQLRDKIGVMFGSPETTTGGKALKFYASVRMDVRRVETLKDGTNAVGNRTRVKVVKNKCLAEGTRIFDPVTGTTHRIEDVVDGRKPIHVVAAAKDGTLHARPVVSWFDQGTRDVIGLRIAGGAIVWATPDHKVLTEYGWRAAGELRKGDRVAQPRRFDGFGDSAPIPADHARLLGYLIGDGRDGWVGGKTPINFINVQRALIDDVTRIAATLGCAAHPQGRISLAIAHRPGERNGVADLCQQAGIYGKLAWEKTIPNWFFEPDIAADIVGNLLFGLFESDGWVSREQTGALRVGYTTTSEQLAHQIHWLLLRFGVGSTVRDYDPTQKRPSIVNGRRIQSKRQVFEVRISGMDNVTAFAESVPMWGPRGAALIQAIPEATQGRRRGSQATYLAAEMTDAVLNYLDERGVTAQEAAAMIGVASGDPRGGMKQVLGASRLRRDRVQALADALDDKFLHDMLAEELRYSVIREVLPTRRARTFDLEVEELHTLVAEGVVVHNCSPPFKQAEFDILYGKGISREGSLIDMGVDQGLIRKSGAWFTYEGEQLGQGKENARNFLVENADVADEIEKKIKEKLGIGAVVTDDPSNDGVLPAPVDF
# HEK293 [16] = experiment: NOD1 signaling inhibitors, primary screen, cell-based, luminescence, uHTS (AID 1578); assay type: functional; conditions: Homo sapiens
# [17] = Luminescence Cell-Based Dose Retest to Confirm Inhibitors of Cancer Stem Cells. [Related pubchem assays (depositor defined):AID2717, AID2721]; assay type: functional; conditions: Homo sapiens
# [18] = target: T3, Replicative DNA helicase DnaB (Mycobacterium tuberculosis, UniProt P9WMR3); experiment: DnaB intein splicing inhibitors, dose response, biochemical, cell-free fluorescence (AID 449749); assay type: functional
# T3 sequence (P9WMR3 whole entry): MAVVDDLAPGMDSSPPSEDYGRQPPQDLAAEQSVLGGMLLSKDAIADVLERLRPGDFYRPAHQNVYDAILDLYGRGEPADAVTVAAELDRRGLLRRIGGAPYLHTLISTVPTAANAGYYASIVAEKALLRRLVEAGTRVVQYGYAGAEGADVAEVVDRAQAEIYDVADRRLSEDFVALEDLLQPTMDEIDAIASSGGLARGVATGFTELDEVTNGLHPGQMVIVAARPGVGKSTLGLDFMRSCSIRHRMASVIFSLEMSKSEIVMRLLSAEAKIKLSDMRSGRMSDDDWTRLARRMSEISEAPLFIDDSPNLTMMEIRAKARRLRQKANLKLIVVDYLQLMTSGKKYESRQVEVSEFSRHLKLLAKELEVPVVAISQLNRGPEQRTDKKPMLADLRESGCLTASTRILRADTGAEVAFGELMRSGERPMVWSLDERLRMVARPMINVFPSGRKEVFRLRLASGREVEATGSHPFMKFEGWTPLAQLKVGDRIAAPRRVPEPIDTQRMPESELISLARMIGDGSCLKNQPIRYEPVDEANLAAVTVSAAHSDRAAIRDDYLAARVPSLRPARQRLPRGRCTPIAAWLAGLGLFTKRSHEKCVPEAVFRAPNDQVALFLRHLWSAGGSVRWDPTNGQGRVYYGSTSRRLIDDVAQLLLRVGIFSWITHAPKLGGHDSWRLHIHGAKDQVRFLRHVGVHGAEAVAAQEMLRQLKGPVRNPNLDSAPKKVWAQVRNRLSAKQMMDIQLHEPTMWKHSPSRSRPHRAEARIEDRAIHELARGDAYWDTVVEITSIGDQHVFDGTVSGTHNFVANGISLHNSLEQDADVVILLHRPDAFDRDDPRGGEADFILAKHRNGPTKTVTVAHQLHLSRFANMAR
# HEK293 [19] = experiment: cells; assay type: functional, cell-based; conditions: Homo sapiens
# [20] = target: Heat shock protein HSP 90-alpha (Homo sapiens, UniProt P07900); assay type: functional, organism-based
# [21] = target: ATP-binding cassette sub-family B member 6 (Homo sapiens, UniProt Q9NP58); experiment: ABCB6 transporter inhibitors, porphyrin accumulation, dose response, flow cytometry, K562-ABCB6 cells, cherry pick 02 (AID 624487); assay type: functional; conditions: read-out: EC50_MICROM
# [22] = HepG2 cell cytotoxicity, dose response, cytotoxicity control for Shn3 inhibitor project, CellTiter-Glo, cherry-picked (AID 624134); assay type: functional, cell-based
# [23] = target: Broad substrate specificity ATP-binding cassette transporter ABCG2 (Homo sapiens, UniProt Q9UNQ0); experiment: ABCG2 efflux pump inhibitors, dose response, Ig-MXP3 cells, flow cytometry (AID 1690); assay type: functional
# [24] = target: ATP-dependent translocase ABCB1 (Homo sapiens, UniProt P08183); experiment: ABCB1 efflux pump inhibitor potency, dose response, Jurkat-DNR cells, JC-1, flow cytometry (AID 1689); assay type: functional
# [25] = target: T4, Beta-2 adrenergic receptor (Homo sapiens, UniProt P07550); experiment: Dose response for HTS for Beta-2AR agonists via FAP method from Powderset1.; assay type: functional
# [26] = target: T4, Beta-2 adrenergic receptor; experiment: beta2AR agonists driving receptor internalization, dose response, cell-based, FAP fluorogen, flow cytometry, cherry pick 1 (AID 588763); assay type: functional
# HeLa = experiment: HeLa cell cytotoxicity, dose response, cytotoxicity control, ATP luminescence, cherry-pick samples (AID 687004); assay type: functional, cell-based; conditions: Homo sapiens
# T4 sequence (P07550 whole entry): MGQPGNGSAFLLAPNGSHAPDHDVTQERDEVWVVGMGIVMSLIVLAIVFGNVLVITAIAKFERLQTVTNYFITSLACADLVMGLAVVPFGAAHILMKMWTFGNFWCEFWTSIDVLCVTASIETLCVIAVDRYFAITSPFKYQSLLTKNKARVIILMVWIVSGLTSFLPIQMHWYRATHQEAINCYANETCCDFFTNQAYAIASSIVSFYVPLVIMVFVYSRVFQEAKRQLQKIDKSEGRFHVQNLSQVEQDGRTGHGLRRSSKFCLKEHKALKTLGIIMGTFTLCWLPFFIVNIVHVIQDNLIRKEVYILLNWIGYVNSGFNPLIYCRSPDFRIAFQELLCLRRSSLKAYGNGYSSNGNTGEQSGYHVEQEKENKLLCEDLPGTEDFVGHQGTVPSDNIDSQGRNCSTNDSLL
# Chain of Apelin receptor (P35414 whole entry, the tested form may be a part): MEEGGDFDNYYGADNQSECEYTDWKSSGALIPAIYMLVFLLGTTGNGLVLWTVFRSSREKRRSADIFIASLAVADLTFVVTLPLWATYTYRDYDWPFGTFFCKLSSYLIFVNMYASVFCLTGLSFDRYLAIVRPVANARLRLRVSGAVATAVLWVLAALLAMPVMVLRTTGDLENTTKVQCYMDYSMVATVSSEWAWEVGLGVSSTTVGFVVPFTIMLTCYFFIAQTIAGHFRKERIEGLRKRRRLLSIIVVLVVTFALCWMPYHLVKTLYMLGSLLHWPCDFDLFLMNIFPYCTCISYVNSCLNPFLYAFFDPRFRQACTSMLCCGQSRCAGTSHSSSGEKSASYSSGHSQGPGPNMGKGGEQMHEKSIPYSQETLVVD
# Chain of ATP-binding cassette sub-family B member 6 (Q9NP58 whole entry): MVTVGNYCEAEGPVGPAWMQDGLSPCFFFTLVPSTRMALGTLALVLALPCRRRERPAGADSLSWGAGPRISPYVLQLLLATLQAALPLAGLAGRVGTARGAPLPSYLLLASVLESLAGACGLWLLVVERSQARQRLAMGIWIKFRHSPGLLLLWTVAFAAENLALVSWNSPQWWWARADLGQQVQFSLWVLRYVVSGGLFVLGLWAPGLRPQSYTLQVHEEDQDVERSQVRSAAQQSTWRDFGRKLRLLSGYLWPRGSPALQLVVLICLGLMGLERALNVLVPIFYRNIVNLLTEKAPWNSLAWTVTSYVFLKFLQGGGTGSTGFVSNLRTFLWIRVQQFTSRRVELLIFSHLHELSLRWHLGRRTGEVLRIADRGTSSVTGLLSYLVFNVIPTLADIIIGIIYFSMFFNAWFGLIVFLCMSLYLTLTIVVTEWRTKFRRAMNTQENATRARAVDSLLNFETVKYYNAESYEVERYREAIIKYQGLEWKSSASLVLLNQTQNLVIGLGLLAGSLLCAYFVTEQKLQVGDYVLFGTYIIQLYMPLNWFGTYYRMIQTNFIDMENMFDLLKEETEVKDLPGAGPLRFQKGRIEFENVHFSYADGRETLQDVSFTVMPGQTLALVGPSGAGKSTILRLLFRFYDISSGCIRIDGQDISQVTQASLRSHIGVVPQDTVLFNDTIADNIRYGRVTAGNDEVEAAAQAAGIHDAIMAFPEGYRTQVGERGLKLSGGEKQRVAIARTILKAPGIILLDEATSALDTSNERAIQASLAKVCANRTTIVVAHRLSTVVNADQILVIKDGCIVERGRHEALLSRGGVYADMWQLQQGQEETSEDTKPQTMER
# Chain of Broad substrate specificity ATP-binding cassette transporter ABCG2 (Q9UNQ0 whole entry): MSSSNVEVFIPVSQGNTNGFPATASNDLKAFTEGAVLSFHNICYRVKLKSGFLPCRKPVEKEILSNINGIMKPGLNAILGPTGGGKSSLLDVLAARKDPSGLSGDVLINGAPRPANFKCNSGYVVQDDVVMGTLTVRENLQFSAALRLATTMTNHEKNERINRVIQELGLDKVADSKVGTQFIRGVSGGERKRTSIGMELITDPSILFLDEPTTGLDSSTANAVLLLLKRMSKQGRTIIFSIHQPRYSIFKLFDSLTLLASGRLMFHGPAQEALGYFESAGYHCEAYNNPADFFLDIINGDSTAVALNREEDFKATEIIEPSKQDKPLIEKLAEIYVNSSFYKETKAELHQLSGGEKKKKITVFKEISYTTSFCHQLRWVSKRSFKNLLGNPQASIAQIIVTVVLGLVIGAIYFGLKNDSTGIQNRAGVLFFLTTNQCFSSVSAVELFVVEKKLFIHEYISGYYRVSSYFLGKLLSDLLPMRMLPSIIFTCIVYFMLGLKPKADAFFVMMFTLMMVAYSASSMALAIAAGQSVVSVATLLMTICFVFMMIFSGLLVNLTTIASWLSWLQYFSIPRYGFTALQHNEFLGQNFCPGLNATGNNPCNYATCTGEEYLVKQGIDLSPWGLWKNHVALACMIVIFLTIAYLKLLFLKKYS
# Chain of Nucleotide-binding oligomerization domain-containing protein 2 (Q9HC29 whole entry, the tested form may be a part): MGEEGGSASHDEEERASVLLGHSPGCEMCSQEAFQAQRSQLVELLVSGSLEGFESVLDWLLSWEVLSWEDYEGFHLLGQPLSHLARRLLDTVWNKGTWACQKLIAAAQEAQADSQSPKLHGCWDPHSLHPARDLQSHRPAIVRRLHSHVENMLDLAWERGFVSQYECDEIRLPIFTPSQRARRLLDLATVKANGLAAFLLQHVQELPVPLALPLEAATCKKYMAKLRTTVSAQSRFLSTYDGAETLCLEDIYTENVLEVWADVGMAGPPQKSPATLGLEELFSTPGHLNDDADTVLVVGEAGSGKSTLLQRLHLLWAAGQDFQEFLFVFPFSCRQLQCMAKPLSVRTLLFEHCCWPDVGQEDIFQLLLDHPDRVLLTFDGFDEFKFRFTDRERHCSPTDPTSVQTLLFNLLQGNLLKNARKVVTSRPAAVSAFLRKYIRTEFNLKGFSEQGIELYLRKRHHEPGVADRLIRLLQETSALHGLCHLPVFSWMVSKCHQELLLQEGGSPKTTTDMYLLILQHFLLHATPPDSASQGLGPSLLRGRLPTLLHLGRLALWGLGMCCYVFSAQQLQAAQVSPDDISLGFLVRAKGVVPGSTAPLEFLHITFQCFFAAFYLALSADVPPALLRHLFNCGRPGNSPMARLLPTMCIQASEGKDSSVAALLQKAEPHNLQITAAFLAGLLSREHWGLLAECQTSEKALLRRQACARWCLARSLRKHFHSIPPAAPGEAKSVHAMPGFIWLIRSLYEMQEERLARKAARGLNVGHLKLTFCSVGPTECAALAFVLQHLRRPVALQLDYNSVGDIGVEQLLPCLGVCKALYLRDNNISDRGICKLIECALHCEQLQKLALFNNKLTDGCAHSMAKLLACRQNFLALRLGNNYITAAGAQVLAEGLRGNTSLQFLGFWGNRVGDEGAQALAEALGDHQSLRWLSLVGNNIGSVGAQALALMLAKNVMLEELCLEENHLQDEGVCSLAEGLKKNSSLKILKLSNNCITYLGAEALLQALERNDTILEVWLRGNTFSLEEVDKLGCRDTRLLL
# Chain of ATP-dependent translocase ABCB1 (P08183 whole entry): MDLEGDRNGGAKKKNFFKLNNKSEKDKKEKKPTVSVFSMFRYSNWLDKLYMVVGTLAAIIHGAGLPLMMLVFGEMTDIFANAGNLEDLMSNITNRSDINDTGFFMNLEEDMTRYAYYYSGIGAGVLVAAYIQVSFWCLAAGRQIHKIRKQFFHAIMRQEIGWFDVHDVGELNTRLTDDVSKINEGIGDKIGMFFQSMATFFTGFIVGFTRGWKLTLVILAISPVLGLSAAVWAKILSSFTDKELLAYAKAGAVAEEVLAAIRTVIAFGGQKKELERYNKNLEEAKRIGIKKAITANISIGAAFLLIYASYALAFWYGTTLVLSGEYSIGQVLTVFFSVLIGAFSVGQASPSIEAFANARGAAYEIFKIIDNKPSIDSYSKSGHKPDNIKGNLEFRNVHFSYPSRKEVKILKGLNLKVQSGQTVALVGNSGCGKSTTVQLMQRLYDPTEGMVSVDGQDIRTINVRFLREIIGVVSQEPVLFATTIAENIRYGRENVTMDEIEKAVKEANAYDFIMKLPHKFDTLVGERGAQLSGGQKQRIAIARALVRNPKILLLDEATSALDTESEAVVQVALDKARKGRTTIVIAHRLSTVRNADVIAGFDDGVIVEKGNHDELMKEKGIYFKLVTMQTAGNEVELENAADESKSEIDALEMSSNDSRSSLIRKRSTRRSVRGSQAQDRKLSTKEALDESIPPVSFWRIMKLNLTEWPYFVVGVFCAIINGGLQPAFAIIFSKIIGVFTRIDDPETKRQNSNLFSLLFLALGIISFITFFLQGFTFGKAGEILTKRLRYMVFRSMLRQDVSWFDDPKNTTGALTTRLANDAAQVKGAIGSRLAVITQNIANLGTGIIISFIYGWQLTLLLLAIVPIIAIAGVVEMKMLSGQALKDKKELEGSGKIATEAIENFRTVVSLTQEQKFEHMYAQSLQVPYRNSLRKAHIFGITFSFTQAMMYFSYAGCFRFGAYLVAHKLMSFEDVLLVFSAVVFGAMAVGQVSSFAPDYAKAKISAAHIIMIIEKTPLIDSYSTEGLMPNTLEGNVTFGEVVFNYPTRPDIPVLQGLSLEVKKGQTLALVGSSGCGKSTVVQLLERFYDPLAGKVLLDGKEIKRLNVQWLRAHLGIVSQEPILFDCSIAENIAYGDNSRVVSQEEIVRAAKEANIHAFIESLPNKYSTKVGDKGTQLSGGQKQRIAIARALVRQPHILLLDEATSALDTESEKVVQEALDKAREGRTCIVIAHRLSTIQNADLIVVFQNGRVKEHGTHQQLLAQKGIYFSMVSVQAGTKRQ
# Chain of G-protein coupled receptor 55 (Q9Y2T6 whole entry): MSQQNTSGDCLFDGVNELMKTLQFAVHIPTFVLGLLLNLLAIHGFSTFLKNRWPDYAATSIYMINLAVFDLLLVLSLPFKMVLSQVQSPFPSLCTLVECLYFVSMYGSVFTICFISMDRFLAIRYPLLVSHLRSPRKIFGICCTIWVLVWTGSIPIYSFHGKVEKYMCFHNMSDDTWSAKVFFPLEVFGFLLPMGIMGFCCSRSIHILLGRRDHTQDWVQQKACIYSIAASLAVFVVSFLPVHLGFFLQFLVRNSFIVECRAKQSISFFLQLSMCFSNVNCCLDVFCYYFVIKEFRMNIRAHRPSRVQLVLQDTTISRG
smiles,measurement,setting,value
NC(=O)N=Nc1c2nc3ccccc3[nH]c-2c2ccccc12,AC50,[1],8.41 µM (active)
same,CC50,[2],7.97 µM (active)
same,CC50,[3],> 20 µM (active)
same,IC50,cells,11.1 µM (active)
same,EC50,[4],> 120 µM (not active)
same,IC50,[5],2.88 µM (active)
same,CC50,[6],11.9 µM (active)
same,EC50,[7],7.71 µM (active)
same,AbsAC35_uM,[8],58.66 µM
same,EC50,Streptococcus,> 150 µM (not active)
same,EC50,[9],13 µM (active)
same,EC50,H4,> 120 µM (not active)
same,EC50,Streptokinase A,46.2 µM (active)
same,CC50,[10],23.5 µM (active)
CCC(=O)Nc1sc(C(=O)Nc2ccccc2)c(C)c1C(=O)OC,AC50,[11],26 µM (active)
Cc1ccccc1CS(=O)(=O)c1ncc(Cl)c(C(=O)Nc2ccc(F)cc2)n1,IC50,Beta Lactamase,6.25 µM (active)
same,IC50,HEK293 [12],10 µM (inactive)
same,IC50,Apelin receptor,19.7 µM (active)
same,AC50,[13],11.5 µM (active)
same,EC50,[14],> 20 µM (inactive)
same,IC50,CHO,4.01 µM (active)
same,AC50,[15],3 µM (active)
same,IC50,Beta-galactosidase,> 66.6 µM (inactive)
same,EC50,Protein RecA,2.79 µM (active)
same,EC50,HEK293 [16],8.92 µM (active)
same,AC50,[17],2.2 µM (active)
same,AC50,[18],1.22 µM (active)
same,IC50,HEK293 [19],> 20 µM (inactive)
same,AC50,[20],2.41 µM (active)
same,EC50,[21],30.5 µM (active)
same,AC50,[22],40.4 µM (active)
CCOc1ccc(NC(=O)c2cccc3c2C(=O)N(CCOC)C3)cc1,EC50,[23],1.6 µM (active)
same,EC50,[24],8.31 µM (inactive)
CCc1ccc(CN2CCC(Oc3ccc(C(=O)N4CCCCC4)cc3)CC2)cc1,EC50,[25],1.83 µM (active)
same,EC50,[26],1.75 µM (active)
CC(C)NC(=O)Nc1ccc2c(c1)CC(=O)N([C@@H](C)CO)C[C@@H](C)[C@@H](CN(C)Cc1ccc(Oc3ccccc3)cc1)O2,AC50,HeLa,38.8 µM (active)
